Data from US8815887B2, “Prophylactic or therapeutic method for Sjogren's syndrome” (Takeda Pharmaceutical Company Limited, priority 2012, dated 2014).

What was measured:
Type in all cases: in vivo
[1] = test system: NOD/ShiLtJ mouse; assay: Saliva secretion amount by pilocarpine stimulation in Sjogren's syndrome animal model
Source text: As an animal model for Sjogren's syndrome, most widely used NOD/ShiLtJ mouse (hereinafter sometimes referred to as NOD mouse) was selected since it meets the both conditions of the diagnosis standard: 1) development of dry eye and dry mouth, 2) increase of anti-SS-A/Ro and anti-SS-B/La antibody titer, and is easily available (Tegan N. Lavoie et. al., Journal of Biomedicine and Biotechnology Volume 2011 (2011), Article ID 549107, pp 1-14). 6-Week-old NOD mice were purchased from The Jackson Laboratory (US), after acclimatization for 1-2 weeks, animals before onset of diabetes were divided into 3 groups (maximum 30 mice per group) by randomization into each of the groups based on the body weight measured before the start of the test drug administration and the data of saliva secretion amount by pilocarpine stimulation under ketamine•xylazine anesthesia and subjected to the test. During the test drug treatment, the body weight and the blood glucose level were monitored at least once a week. The blood glucose level of several μL of the blood collected from the tail vein under 1-5% isoflurane anesthesia was measured by a blood glucose level measuring instrument (Accu-Chek Aviva Nano, Roche diagnostics K.K.). The diabetes diagnosis criteria was not less than 250 mg/dL, and one insulin pellet (LinBit, LinShin Canada, Inc.) was subcutaneously transplanted under 1-5% isoflurane anesthesia into the abdomen of the mouse that developed diabetes, and the blood glucose was controlled during the study by monitoring the blood glucose level, and adding or removing the pellet as necessary.
Compound A was orally administered twice daily (minimum ic dosing interval 6 hours) every day except Saturdays and Sundays. The dose of compound A was 50 mg/kg or 250 mg/kg, and 0.2 mL was orally administered as a single dose. The concentration of compound A was appropriately controlled by calculating an average body weight of the group once a week from the body weights of the NOD mice, and adjusting the concentration such that the administration of 0.2 mL results in the administration of each dose. On the other hand, the vehicle group without administration of compound A was orally administered with 0.2 mL of 0.5% methylcellulose solution in the same schedule as above.
Under anesthesia by intraperitoneal administration of a mixture (10 mL/kg) of ketamine (100 mg/kg) and xylazine (10 mg/kg), the saliva secreted in 15 min after subcutaneous administration of pilocarpine (5 mg/kg) was collected with defatted cotton, and the secretion amount was calculated from the defatted cotton weight before and after the measurement.
This measurement was performed twice when the mice reached 21-week-old and 26-week-old.
(§1) The saliva secretion amount in 23-week-old NOD mice administered with compound A or compound B was measured in the same manner as in Experimental Example 2.

[2] = test system: NOD/ShiLtJ mouse; assay: Tolerability in the long-term efficacy study (Experimental Example 3); details: relatively long term, same dose range (50 and 250 mg/kg)
Procedure: as §1

[3] = test system: CD4+ T cells in the salivary gland; assay: CD4 mRNA level (CD4+ T cells) in salivary gland tissue, normalized to β-actin; details: 26-week-old NOD mouse, compound A treatment group (50 and 250 mg/kg)
Source text: (§2) The salivary gland of the 26-week-old NOD mice used in Experimental Example 2 for the measurement of the saliva secretion amount was removed, the total RNA was recovered from there, and the mRNA levels of CD4, CD8 and CCR9 were normalize with the β-actin expression level as the internal standard.

[4] = test system: CD8+ T cells in the salivary gland; assay: CD8 mRNA level (CD8+ T cells) in salivary gland tissue, normalized to β-actin; details: 26-week-old NOD mouse
Source text: as §2

[5] = test system: CCR9; assay: CCR9 mRNA expression level in salivary gland tissue, normalized to β-actin; details: 26-week-old NOD mouse, 50 and 250 mg/kg
Source text: as §2

[6] = test system: anti-SS-A/Ro antibody; assay: Anti-SS-A/Ro Ig ELISA of blood of Sjogren's syndrome animal model; details: 26-week-old NOD mouse; for onset frequency (positive anti-SS-A/Ro, antibody titer not less than 30 Unit): vehicle 100% onset
Procedure: Blood samples from the 26-week-old NOD mice used in Experimental Example 2 for the measurement of the saliva secretion amount were collected, and ELISA test was carried out for two subsets of anti-SS-A/Ro and anti-SS-B/La found commonly in Sjogren's syndrome.
For quantification of the Total Anti-SSA Ig (IgG+IgA+IgM) in the serum, commercially available Mouse Anti-SSA Total Ig ELISA Kit Cat. No. 5710 (manufactured by ALPHA DIAGNOSTIC INTERNATIONAL) was used. The standard protocol was partly modified. A mouse serum sample was diluted 1/10-fold, the serum of C57BL/6 mouse was added to anti-SSA calibrator solution (Calibrator solution) to give 10% serum.

[7] = test system: anti-SS-B/La antibody; assay: Anti-SS-B/La IgG ELISA of blood of Sjogren's syndrome animal model; details: 26-week-old NOD mouse, 50 and 250 mg/kg
Procedure: Blood samples from the 26-week-old NOD mice used in Experimental Example 2 for the measurement of the saliva secretion amount were collected, and ELISA test was carried out for two subsets of anti-SS-A/Ro and anti-SS-B/La found commonly in Sjogren's syndrome. […]
antigen: SS-B (RayBiotech, Inc., MD-27-0019P) plate: Immuno 96 Microwell Plate (Nunc, 442404) washing: 0.1% Tween 20 containing PBS (hereinafter sometimes to be referred to as PBS/T) substrate: One tablet of o-phenylenediamine dihydrochloride (OPD) (Sigma, P-4809) was dissolved in 50 mM citric acid-phosphoric acid buffer pH 5.0 (Sigma, P-4809) (10 mL), and 4 μL aqueous hydrogen peroxide was added.
SS-A and SS-B were each diluted with 50 mM carbonate buffer pH 9.6 (Sigma, C-3041) to 0.5 μg/mL and 1.0 μg/mL, respectively, and the antigen was added to an ELISA plate at 50 μL/well. After incubation at 4° C. overnight, the plate was washed 3 times with PBS/T, added with 2% BSA in PBS at 200 μL/well, and incubated at room temperature for 1 hr. After washing once with PBS/T, the serum diluted with PBS/T (100- to 500-fold) was added at 50 μL/well, and the mixture was incubated at room temperature for 1-2 hr. […]

[8] = Time-course changes in plasma concentration in Sjogren's syndrome animal model; details: NOD mouse, oral twice per day 50 and 250 mg/kg, repeated for 19 weeks
Procedure: The compound was orally administered twice per day to 8-week-old NOD mouse under the following conditions, and administration was repeated for 19 weeks.
To the plasma (5 μL) collected from the NOD mouse were added a solvent solution (dimethyl sulfoxide/acetonitrile (2:8), 5 μL), and compound A solution (compound A dissolved in solvent solution, 5 μL) or compound B solution (compound B dissolved in solvent solution, 5 μL) for drawing an analytical curve. An internal standard substance (acetonitrile (115 μL) containing a deuterated form of compound A, or diclofenac sodium, 100 ng/mL)) was added, and the mixture was vigorously stirred. The mixture was centrifuged at 5250 rpm. To the supernatant (30 μL) was added a dilution solvent (60 μL) to give a sample solution (mobile phase A:mobile phase B=9:1 (v/v) was used as a dilution solvent).
The above-mentioned sample solution was injected into an HPLC-MS/MS analysis apparatus, and the obtained peak area was converted to concentration from the analytical curve. The detail of the analysis apparatus is shown below.

[9] = 23-week-old NOD mouse, 50 mg/kg

Which results are given for `CC(C)Oc1ccc(S(=O)(=O)Nc2ccc(Cl)cc2C(=O)c2cc[n+]([O-])cc2)cc1` [compound A, N-{4-chloro-2-[(1-oxidopyridin-4-yl)carbonyl]phenyl}-4-(propan-2-yloxy)benzenesulfonamide]?
saliva secretion amount ([1]; 21-week-old NOD mouse, 50 mg/kg orally twice daily from 8-week-old, vehicle about 8.3): about 9.8 mg/15 min/g BW; saliva secretion amount ([1]; 21-week-old NOD mouse, 250 mg/kg orally twice daily from 8-week-old, vehicle about 8.3): about 11.2 mg/15 min/g BW; saliva secretion amount compared to the vehicle group [1, 9]: significantly suppressed a decrease in the saliva secretion amount; saliva secretion amount compared to the vehicle group ([1]; 23-week-old NOD mouse, 250 mg/kg): significantly suppressed a decrease in the saliva secretion amount; saliva secretion amount ([1]; 26-week-old NOD mouse, 50 mg/kg orally twice daily from 8-week-old, vehicle about 4.0): about 5.5 mg/15 min/g BW; increase of saliva secretion amount than the vehicle group ([1]; 26-week-old NOD mouse, 250 mg/kg): two-fold increase; saliva secretion amount ([1]; 26-week-old NOD mouse, 250 mg/kg orally twice daily from 8-week-old, vehicle about 4.0): about 8.0 mg/15 min/g BW; effect on decrease in saliva secretion amount (dose dependence) ([1]; NOD mouse, 50 and 250 mg/kg, 21- and 26-week-old): significantly suppressed a decrease in the saliva secretion amount in a dose-dependent manner; tolerability [2]: clearly superior with compound A to compound B; amount of CD4+ T cells in the salivary gland as compared to the vehicle group [3]: decreased to about half; amount of CD8+ T cells in the salivary gland as compared to the vehicle group ([4]; 50 mg/kg): decreased to about half; amount of CD8+ T cells in the salivary gland as compared to the vehicle group ([4]; 250 mg/kg): about one-third; mRNA expression level of CCR9 in the salivary gland as compared to the vehicle group [5]: tended to decrease in a dose-dependent manner; onset frequency (positive anti-SS-A/Ro, antibody titer not less than 30 Unit) ([6]; 50 mg/kg): about 50%; share of treatment group with anti-SS-A/Ro antibody suppressed to the control level ([6]; 250 mg/kg, control C57BL/6 mouse): about 70%; onset frequency (positive anti-SS-A/Ro, antibody titer not less than 30 Unit) ([6]; 250 mg/kg): about 30%; anti-SS-A/Ro antibody titer in blood ([6]; 50 and 250 mg/kg): decreased in a dose-dependent manner; anti-SS-B/La antibody titer in blood [7]: decreased in a dose-dependent manner; blood exposure [8]: good blood exposure; metabolism / accumulation in the body [8]: rapidly metabolized without accumulation in the body

Which results are given for `CC(C)(C)c1ccc(S(=O)(=O)Nc2ccc(Cl)cc2C(=O)c2cc[n+]([O-])cc2)cc1` [compound B, N-{4-chloro-2-[(1-oxidopyridin-4-yl)carbonyl]phenyl}-4-(tert-butyl)benzenesulfonamide]?
saliva secretion amount compared to the vehicle group [1, 9]: significantly higher; dose-dependent effect on saliva secretion amount ([1]; 23-week-old NOD mouse, 50 and 250 mg/kg): the dose-dependent effect was not found; AUC relative to compound A [8]: about one-tenth that of compound A; metabolism / accumulation in the body [8]: rapidly metabolized without accumulation in the body
